Test results published in ChEMBL document CHEMBL1133277, “Effect of C2/C3-endo unsaturation on the cytotoxicity and DNA-binding reactivity of pyrrolo[2,1-c][1,4]benzodiazepines” (2000).

Columns and labels:
[1] = system: A2780; assay: In vitro cytotoxicity of compound was determined against A2780 cell lines (cisplatin resistant) at 37 degree C after 96 hr; format: functional, Homo sapiens
[2] = system: Nucleic Acid; assay: Change in temperature (thermal denaturation) was determined from calf thymus DNA at 37 degree Celsius for 4 hours; format: functional; conditions: Bos taurus
[3] = Resistance factor of compound was determined from cisplatin resistant A2780 cell lines to that of A2780 cell lines; format: functional
[4] = system: Nucleic Acid; assay: Change in temperature (thermal denaturation) was determined from calf thymus DNA at 37 degree Celsius for 18 hours; format: functional; conditions: Bos taurus
[5] = system: SK-OV-3; assay: In vitro cytotoxicity of compound was determined against SKOV-3 cell lines at 37 degree C after 96 hr; format: functional, Homo sapiens
[6] = system: A2780; assay: In vitro cytotoxicity of compound was determined against A2780 cell lines at 37 degree C after 96 hr; format: functional, Homo sapiens
[7] = system: CH1; assay: In vitro cytotoxicity of compound was determined against CH1 cell lines at 37 degree C after 96 hr; format: functional, Homo sapiens
[8] = system: CH1; assay: In vitro cytotoxicity of compound was determined against CH1 (cisplatin resistant) cell lines at 37 degree C after 96 hr; format: functional, Homo sapiens
[9] = system: Nucleic Acid; assay: Change in temperature (thermal denaturation) was determined from calf thymus DNA at 37 degree Celsius for 0 hours; format: functional; conditions: Bos taurus
[10] = Resistance factor of compound was determined from cisplatin resistant CH1 cell lines to that of CH1 cell lines; format: functional
[11] = system: Nucleic Acid; assay: Change in temperature (thermal denaturation) was determined from calf thymus DNA at 37 degree Celsius for 36 hours; format: functional; conditions: Bos taurus

| Structure (SMILES) | Cytotoxicity [1] | ΔTm [2] | Resistance factor [3] | ΔTm [4] | Cytotoxicity [5] | Cytotoxicity [6] | Cytotoxicity [7] | Cytotoxicity [8] | ΔTm [9] | Resistance factor [10] | ΔTm [11] |
| --- | --- | --- | --- | --- | --- | --- | --- | --- | --- | --- | --- |
| COc1cc2c(cc1OCc1ccccc1)N=C[C@@H]1CC(CCOC(C)=O)=CN1C2=O | 0.27 µM | 2.11 °C | 2.7 | 2.53 °C | 0.46 µM | 0.1 µM | 0.105 µM | 0.16 µM | 1.57 °C | 1.5 | – |
| COC(=O)CC1=CN2C(=O)c3cc(OC)c(OC)cc3N=C[C@@H]2C1 | 0.46 µM | 4.63 °C | 1.3 | – | 0.45 µM | 0.36 µM | 0.115 µM | 0.15 µM | 3.41 °C | 1.3 | 6.65 °C |
| COc1cc2c(cc1OCc1ccccc1)N=C[C@@H]1CCCN1C2=O | 0.48 µM | 0.4 °C | 2.8 | 0.4 °C | 0.46 µM | 0.17 µM | 0.145 µM | 0.145 µM | 0.2 °C | 1 | – |
| COC(=O)CC1=CN2C(=O)c3cc(OC)c(OCc4ccccc4)cc3N=C[C@@H]2C1 | 0.12 µM | 3.96 °C | 8.3 | – | 0.12 µM | 0.0145 µM | 0.016 µM | 0.04 µM | 3.08 °C | 2.5 | 4.97 °C |
| COc1cc2c(cc1OCc1ccccc1)N=C[C@@H]1CC(CC#N)=CN1C2=O | 0.43 µM | 2.31 °C | 2.8 | 4.31 °C | 0.52 µM | 0.155 µM | 0.105 µM | 0.27 µM | 1.84 °C | 2.6 | – |
| Cc1ccc2c(c1O)N=C[C@@H]1CC(/C=C/C(N)=O)=CN1C2=O | 0.16 µM | 11.2 °C | 1.03 | 13 °C | 0.16 µM | 0.155 µM | 0.062 µM | 0.05 µM | 9.4 °C | 0.81 | – |
| COc1cc2c(cc1OCc1ccccc1)N=C[C@@H]1CC(CCO)=CN1C2=O | 0.105 µM | 4.61 °C | 1.5 | 5.6 °C | 0.105 µM | 0.07 µM | 0.09 µM | 0.037 µM | 3.98 °C | 0.4 | – |
